Laboratory results published in patent US10206904B2, “Licofelone derivatives and methods of use” (The Board of Regents of the University of Oklahoma, priority 2015, dated 2019).
Where two headings read alike, the source gives them in different places.

Experiments:
[1] = system: small intestinal polyps and colon tumors of Apc Min/+ mice; settings: for intestinal tumor inhibition: high-dose (700 ppm)
Description: Male Apc^Min/+ (C57BL/6J) and female wild-type littermate mice were initially purchased from The Jackson Laboratory (Bar Harbor, Me.) as founders, and our own breeding colony was established in OUHSC rodent barrier facility and genotyped according to vendor's instructions. All mice were housed 3 per cage in ventilated cages under standardized conditions (21° C., 60% relative humidity, 12 h light/12 h dark cycle, 20 air changes/hr). All mice were allowed ad libitum access to the respective diets and automated tap water purified by reverse osmosis.
All diet ingredients for the semi-purified diets were purchased from Bioserve (Frenchtown, N.J.) and stored at 4° C. before diet preparation. Diets were based on the modified American Institute of Nutrition (AIN)-76A diet. […] Both control and experimental diets were prepared weekly and stored in a cold room. Agent content in the experimental diets was determined periodically in multiple samples taken from the top, middle, and bottom portions of individual diet preparations to verify uniform distribution.
Genotyped Male and female Apc^Min/+ mice were used in the efficacy study. Five week old mice were distributed so that average body weights in each group were equal (10/9 Apc^Min/+ mice in each group) and were fed with AIN-76A diet for one week. […] Body weight, food, and fluid consumption were monitored weekly for signs of weight loss or lethargy that might indicate intestinal obstruction or anemia. Mice were routinely checked for any abnormalities. After 12 weeks, all mice were euthanized by CO2 asphyxiation, blood was collected immediately by heart puncture, and serum was separated by centrifugation and stored at −80° C. until further analysis. […] After necropsy, the entire intestinal tract was harvested, flushed with 0.9% NaCl and opened longitudinally from the esophagus to the distal rectum. The tissue was flattened on filter paper to expose the tumors and briefly frozen on dry ice to aid visual scoring of tumors. The number, location, and size of visible tumors in the entire intestine were determined under a dissection microscope (×5). All tumors were scored and subdivided by location (duodenal, jejunal and ileum and colon) and size (>2 mm, 1-2 or <1 mm in diameter). This procedure was completed by two individuals who were blinded to the experimental group and the genetic status of the mice. Colonic and other small intestinal tumors that required further histopathologic evaluation to identify adenoma, adenocarcinoma, and enlarged lymph nodes were fixed in 10% neutral-buffered formalin, embedded in paraffin blocks, and processed by routine H&E staining.
All results are expressed as mean±SE and were analyzed by Student's t test. Differences were considered significant at the P<0.05 level.

[2] = molecular target: T1, mPGES-1 (Rattus norvegicus, UniProt Q9JHF3); settings: two weeks, male F344 rats
T1 sequence (Q9JHF3 whole entry): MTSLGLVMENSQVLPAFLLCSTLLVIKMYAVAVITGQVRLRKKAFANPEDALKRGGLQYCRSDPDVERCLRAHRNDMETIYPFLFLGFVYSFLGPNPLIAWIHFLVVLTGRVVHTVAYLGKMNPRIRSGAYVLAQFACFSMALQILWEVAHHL
Description: (§1) Male F344 rats at 8 weeks of age treated with AOM (15 mg/Kg BW) and exposed to 2% DSS for three days. […] Further, the inflammation was scored by following below criteria: […]

[3] = molecular target: T2, 5-LOX (Rattus norvegicus, UniProt P12527); settings: two weeks, male F344 rats
T2 sequence (P12527 whole entry): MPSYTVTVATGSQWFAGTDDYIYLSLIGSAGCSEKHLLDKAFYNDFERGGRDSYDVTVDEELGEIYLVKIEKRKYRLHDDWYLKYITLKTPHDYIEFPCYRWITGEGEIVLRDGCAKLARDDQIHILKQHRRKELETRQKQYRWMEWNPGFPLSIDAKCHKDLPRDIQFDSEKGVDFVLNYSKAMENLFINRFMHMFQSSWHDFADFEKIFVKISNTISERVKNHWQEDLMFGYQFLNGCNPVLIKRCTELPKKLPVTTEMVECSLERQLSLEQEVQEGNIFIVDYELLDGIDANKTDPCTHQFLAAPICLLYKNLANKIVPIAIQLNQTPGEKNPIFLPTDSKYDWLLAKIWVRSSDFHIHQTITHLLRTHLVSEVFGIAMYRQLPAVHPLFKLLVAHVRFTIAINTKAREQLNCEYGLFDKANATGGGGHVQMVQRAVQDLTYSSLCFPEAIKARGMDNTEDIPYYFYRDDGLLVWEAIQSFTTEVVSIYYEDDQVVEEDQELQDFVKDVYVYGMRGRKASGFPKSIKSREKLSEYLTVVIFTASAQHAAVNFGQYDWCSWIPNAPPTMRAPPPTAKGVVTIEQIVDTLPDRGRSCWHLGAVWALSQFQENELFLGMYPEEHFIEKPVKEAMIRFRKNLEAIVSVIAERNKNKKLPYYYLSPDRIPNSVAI
Description: as §1

[4] = system: COX-1/2; settings: two weeks, male F344 rats
Description: as §1

[5] = molecular target: T1, mPGES-1; settings: ex vivo colon tumor homogenate
Description: (§2) Briefly, colonic tubular adenocarcinomas (ACs) were homogenized in 100 mM Tris-HCl buffer. […] Reaction mixture incubated for 20 min and ^14C-PGE2, 5-^14C-HETE and other 14-C metabolites were extracted and analyzed by Radio-HPLC according to the previously published work.

[6] = molecular target: T2, 5-LOX; settings: ex vivo colon tumor homogenate
Description: as §2

[7] = system: COX-1/2; settings: ex vivo colon tumor homogenate
Description: as §2

[8] = system: colonic aberrant crypt foci (ACF); settings: male F344 rats
Description: Male F344 rats at 8 weeks of age treated with AOM (15 mg/Kg BW) and exposed to 2% DSS for three days. […] Further, the inflammation was scored by following below criteria:
ACF form before colorectal polyps and are an indicator of the potential for cancer.

[9] = 350 and 700 ppm, female Apc Min/+ mice
[10] = 350 ppm in diet, female Apc Min/+ mice
[11] = 350 ppm in diet, male Apc Min/+ mice

CC1(C)Cc2c(-c3ccccc3)c(-c3ccc(Cl)cc3)c(CC(=O)NCC(=O)O)n2C1 [LFA-9, licofelone-glycine]
colonic tumors per mouse [1, 9]: 0.1 tumors per mouse
reduction in the colonic tumors [1, 9]: 90%
colon tumor inhibition [1, 10]: 90%
fewer polyps with sizes greater than 2 mm [1, 10]: 81.6%
colon tumor inhibition [1, 11]: 60%
fewer polyps with sizes greater than 2 mm [1, 11]: 76.8%
total intestinal tumors (polyps), means±SEM [1, 11]: 31.6±5.99
suppression of polyps of greater than 2 mm size ([1]; 700 ppm in diet, both genders, Apc Min/+ mice): more than 81%
inhibition of colon tumors ([1]; 700 ppm in diet, both male and female Apc Min/+ mice): 91%
total intestinal tumors (polyps), means±SEM ([1]; 700 ppm in diet, female Apc Min/+ mice): 15.5±1.79
total intestinal tumors (polyps), means±SEM ([1]; 700 ppm in diet, male Apc Min/+ mice): 24.3±3.7
body weights of Apc Min/+ mice versus control diet ([1]; LFA-9 in diet (350, 700 ppm)): higher weight gains
intestinal tumor inhibition ([1]; female Apc Min/+ mice): 73.8%
intestinal tumor inhibition ([1]; male Apc Min/+ mice): approximately 56%
gross changes attributable to toxicity in liver, kidneys or lungs; body weight gain ([1]; wild-type mice): did not produce any gross changes attributable to toxicity
AOM-DSS-Induced mPGES-1 (colonic mucosa) ([2]; 100 ppm in diet): 22.6%^
AOM-DSS-Induced mPGES-1 (colonic mucosa) ([2]; 200 ppm in diet): 33.7%^
AOM-DSS-Induced mPGES-1 (colonic mucosa) ([2]; 400 ppm in diet): 58%
AOM-DSS-Induced mPGES-1 (colonic mucosa) ([2]; 600 ppm in diet): 77%
AOM-DSS-Induced mPGES-1 (colonic mucosa) ([2]; 800 ppm in diet): 83%
AOM-DSS-Induced 5-LOX (colonic mucosa) ([3]; 100 ppm in diet): 14.5%
AOM-DSS-Induced 5-LOX (colonic mucosa) ([3]; 200 ppm in diet): 22.6%
AOM-DSS-Induced 5-LOX (colonic mucosa) ([3]; 400 ppm in diet): 63.7%
AOM-DSS-Induced 5-LOX (colonic mucosa) ([3]; 600 ppm in diet): 74.7%
AOM-DSS-Induced 5-LOX (colonic mucosa) ([3]; 800 ppm in diet): 88.3%
AOM-DSS-Induced COX-1/2 (colonic mucosa) ([4]; 100 ppm in diet): 3.8%
AOM-DSS-Induced COX-1/2 (colonic mucosa) ([4]; 200 ppm in diet): 8.9%
AOM-DSS-Induced COX-1/2 (colonic mucosa) ([4]; 400 ppm in diet): 15.7%
AOM-DSS-Induced COX-1/2 (colonic mucosa) ([4]; 600 ppm in diet): 31.3%
AOM-DSS-Induced COX-1/2 (colonic mucosa) ([4]; 800 ppm in diet): 42.6%
% of Inhibition from control, mPGES-1 (14C-PGE2 from 14C-PGH2) ([5]; 2.5 μM): 18%
% of Inhibition from control, mPGES-1 (14C-PGE2 from 14C-PGH2) ([5]; 5.0 μM): 32%
% of Inhibition from control, mPGES-1 (14C-PGE2 from 14C-PGH2) ([5]; 7.5 μM): 57%
% of Inhibition from control, mPGES-1 (14C-PGE2 from 14C-PGH2) ([5]; 10 μM): 78%
% of Inhibition from control, mPGES-1 (14C-PGE2 from 14C-PGH2) ([5]; 20 μM): 83%
% of Inhibition from control, 5LOX (5-14C-HETE from 14C-AA) ([6]; 2.5 μM): 27%
% of Inhibition from control, 5LOX (5-14C-HETE from 14C-AA) ([6]; 5.0 μM): 49%
% of Inhibition from control, 5LOX (5-14C-HETE from 14C-AA) ([6]; 7.5 μM): 68%
% of Inhibition from control, 5LOX (5-14C-HETE from 14C-AA) ([6]; 10 μM): 89%
% of Inhibition from control, 5LOX (5-14C-HETE from 14C-AA) ([6]; 20 μM): 97%
% of Inhibition from control, COX-1/2 (14C-PGs and TXs from 14C-AA) ([7]; 2.5 μM): 4%
% of Inhibition from control, COX-1/2 (14C-PGs and TXs from 14C-AA) ([7]; 5.0 μM): 9%
% of Inhibition from control, COX-1/2 (14C-PGs and TXs from 14C-AA) ([7]; 10 μM): 31%
% of Inhibition from control, COX-1/2 (14C-PGs and TXs from 14C-AA) ([7]; 20 μM): 58%
4 or >multi-crypt AC/colon (Mean ± SEM) ([8]; 200 ppm in diet): 23.5 ± 2.1
% Inhibition (4 or >multi-crypt AC/colon) ([8]; 200 ppm in diet): 30%
% Inhibition (total ACF/colon) ([8]; 200 ppm in diet): 29.5%
Total ACF/Colon (Mean ± SEM) ([8]; 200 ppm in diet): 110 ± 6.1
4 or >multi-crypt AC/colon (Mean ± SEM) ([8]; 400 ppm in diet): 18.3 ± 2.0
% Inhibition (4 or >multi-crypt AC/colon) ([8]; 400 ppm in diet): 45.4%
% Inhibition (total ACF/colon) ([8]; 400 ppm in diet): 44.2%
Total ACF/Colon (Mean ± SEM) ([8]; 400 ppm in diet): 84 ± 5.3
4 or >multi-crypt AC/colon (Mean ± SEM) ([8]; 600 ppm in diet): 13.5 ± 1.7
% Inhibition (4 or >multi-crypt AC/colon) ([8]; 600 ppm in diet): 61.2%
% Inhibition (total ACF/colon) ([8]; 600 ppm in diet): 60.5%
Total ACF/Colon (Mean ± SEM) ([8]; 600 ppm in diet): 62 ± 4.8
